The values below come from patent US20200206233A1 (INTEGRAL BIOSCIENCES PRIVATE LIMITED, priority 2018, published 2020).

Common to all, as to type: biochemical
In one experiment the target is T1, IDH2 mutant (R140Q) (Homo sapiens, UniProt P48735, R140Q).
T1 construct: purchased BPS Bioscience 71100-2
T1 sequence (P48735 40-452 R140Q): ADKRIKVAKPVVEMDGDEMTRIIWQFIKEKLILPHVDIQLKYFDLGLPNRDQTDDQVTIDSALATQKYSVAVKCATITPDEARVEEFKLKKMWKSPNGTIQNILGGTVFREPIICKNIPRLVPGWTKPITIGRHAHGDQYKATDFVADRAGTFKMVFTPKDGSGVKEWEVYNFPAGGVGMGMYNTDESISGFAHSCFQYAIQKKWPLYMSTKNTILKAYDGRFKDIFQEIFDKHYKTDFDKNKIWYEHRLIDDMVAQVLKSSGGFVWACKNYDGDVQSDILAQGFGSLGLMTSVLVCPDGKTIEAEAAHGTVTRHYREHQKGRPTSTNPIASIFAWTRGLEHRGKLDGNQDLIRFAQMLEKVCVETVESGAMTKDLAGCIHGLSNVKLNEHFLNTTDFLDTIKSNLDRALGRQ
Put plainly: Mutant IDH2-R140Q Fluorescence Assay (Resazurin based). The settings on record: 5 nM IDH2 R140Q, 4 hr pre-incubation, 1 mM α-ketoglutarate, 5 μM NADPH, 2 h. The procedure: IC50 values of compounds against IDH2 mutant (R140Q) were determined by Resazurin based Fluorescence assay. Assay was performed in Buffer (25 mM Tris HCl, 150 mM NaCl, 10 mM MgCl2, 0.03% BSA, 2 mM 1-mercaptoethanol) where total reaction volume was 12.5 μL in low-volume 384-well plates (Cat #4511, Corning). Serially diluted compounds (3-fold) were pre-incubated with IDH2 R140Q mutant enzyme (5 nM; Cat #71100-2, BPS Bioscience) for 4 hr at RT (25° C.) followed by addition of cocktail of α-ketoglutarate (1 mM; Cat #75892-25G, Sigma), and NADPH (5 μM; Cat # N1630-100MG, Sigma) with buffer in dark at room temperature for 2 h. After 2 h incubation, 6.25 μL detection solution containing Resazurin (30 μM; (Cat #62758-13-8, Sigma) and Diaphorase (40 ug/ml; Cat # D2197-300UN, Sigma) in buffer was added and incubated for 15 min. Readings were taken in a Synergy Neo Plate reader (BioTek, Winooski) at single excitation of 540 nm and emission at 590 nm respectively.
The % activity of test samples was calculated as (Sample−Min)×100/(Max−Min). [Max: DMSO control, complete reaction with enzyme with DMSO and Min: No enzyme with DMSO]. Percent inhibition (100−% activity) was fitted to the “four-parameter logistic model” in XLfit for determination of IC50 values.

In a further experiment the target is T2, IDH1 mutant (R132H) (Homo sapiens, UniProt O75874, R132H).
T2 construct: purchased BPS Bioscience 71099-2
T2 sequence (O75874 whole entry R132H): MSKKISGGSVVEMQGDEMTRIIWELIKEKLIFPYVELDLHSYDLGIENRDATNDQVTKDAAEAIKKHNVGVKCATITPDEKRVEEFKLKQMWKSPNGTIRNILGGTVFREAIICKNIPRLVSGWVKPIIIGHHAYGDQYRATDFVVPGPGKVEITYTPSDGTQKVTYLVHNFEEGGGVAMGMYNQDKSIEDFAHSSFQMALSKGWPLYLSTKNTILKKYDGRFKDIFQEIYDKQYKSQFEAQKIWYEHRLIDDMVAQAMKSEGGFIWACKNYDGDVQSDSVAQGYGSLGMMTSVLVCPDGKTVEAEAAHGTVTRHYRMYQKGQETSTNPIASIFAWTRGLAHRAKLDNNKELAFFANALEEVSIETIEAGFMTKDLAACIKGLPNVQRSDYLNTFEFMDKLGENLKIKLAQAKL
Put plainly: Mutant IDH1-R132H Fluorescence Assay (Resazurin based). The settings on record: 10 nM IDH1 R132H, 4 mM α-ketoglutarate, NADPH, 1.5 h at room temperature. In outline:
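Recombinant IDH1 R132H (10 nM) was run with α-ketoglutarate (4 mM) and NADPH ([…]) for 1.5 h at room temperature in Tris pH buffer with MgCl2, BSA and mercaptoethanol. Remaining NADPH was detected via diaphorase/resazurin fluorescence (ex 540/em 590 nm). IC50 came from a 4-parameter logistic fit.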

Another experiment addresses T3, IDH1-WT (Homo sapiens, UniProt O75874).
T3 construct: purchased BPS Bioscience 71075-2
Put plainly: IDH1-WT Fluorescence Assay (Resazurin based). The settings on record: 1 nM IDH1-WT, 200 μM isocitrate, 15 μM NADP+, 30 min at room temperature. The procedure: IC50 values of compounds against IDH1-WT was determined by Resazurin based Fluorescence assay. Assays were performed in Buffer (50 mM Tris HCl, 10 mM MgCl2, 0.03% BSA, 2 mM ß-mercaptoethanol) where total reaction volume was 25 μL in low-volume 96-well plates. Serially diluted compounds (3-fold) in DMSO (0.5% in final reaction) were incubated with cocktail of isocitrate (200 μM; Cat # I1252-1G, Sigma), NADP^+ (15 μM; Cat # N0505-500MG, Sigma) and buffer for 5 min, following addition of IDH1-WT enzyme (1 nM; Cat #71075-2, BPS Bioscience) and incubated in dark at room temperature for 30 min. After that, 12.5 μL detection solution containing Resazurin (60 μM; Cat #62758-13-8, Sigma) and Diaphorase (40 μg/ml; Cat # D2197-300UN, Sigma) in buffer was added and incubated for 15 min. Readings were taken using a Synergy Neo Plate reader (BioTek, Winooski) at single excitation of 540 nm and emission at 590 nm respectively.
The % (percent) activity of test samples was calculated as (Sample−Min)×100/(Max−Min). [Max: DMSO control, complete reaction with enzyme with DMSO and Min: No enzyme with DMSO]. Percent inhibition (100−% activity) was fitted to the “four-parameter logistic model” in XLfit for determination of IC50 values.
On the technique in general: The colour change of resazurin is a common sign of viable cells or microbes.

T3 sequence (O75874 whole entry): as the sequence (O75874 whole entry R132H) above, with H132R counted along it

As for `Cc1cc(-c2cnc([C@H](C)Nc3ncnc(N4C(=O)OC[C@@H]4C(C)C)n3)nc2)ccc1F` [Compound 1.1, (S)-3-(4-((S)-1-(5-(4-fluoro-3-methylphenyl)pyrimidin-2-yl)ethylamino)-1,3,5-triazin-2-yl)-4-isopropyloxazolidin-2-one], the IC50 on IDH2 mutant (R140Q) was > 50 µM; at IDH1 mutant (R132H), 2.77 µM; on IDH1-WT, > 50 µM.
Regarding `CC[C@@H](Nc1ncnc(N2C(=O)OC[C@@H]2C(C)C)n1)c1ccc(Oc2ccccc2)cc1` [Compound 1.34, (S)-4-isopropyl-3-(4-((R)-1-(4-phenoxyphenyl)propylamino)-1,3,5-triazin-2-yl)oxazolidin-2-one], the IC50 is > 50 µM on IDH2 mutant (R140Q), > 30 µM at IDH1 mutant (R132H) and > 30 µM at IDH1-WT.
On to `CC[C@H]1COC(=O)N1c1nc(C)nc(N[C@@H](C)c2ccc3ccn(-c4ccccc4)c3c2)n1` [Compound 1.85, (S)-4-ethyl-3-(4-methyl-6-((S)-1-(1-phenyl-1H-indol-6-yl)ethylamino)-1,3,5-triazin-2-yl)oxazolidin-2-one], for which the IC50 on IDH2 mutant (R140Q) was > 50 µM; at IDH1 mutant (R132H) it was 0.914 µM; at IDH1-WT, > 50 µM.
As for `CC[C@H]1COC(=O)N1c1nc(C)nc(N[C@@H](C)c2ccc(Sc3ccc(F)cc3)cc2)n1` [Compound 1.92, (S)-4-ethyl-3-(4-((S)-1-(4-(4-fluorophenylthio)phenyl)ethylamino)-6-methyl-1,3,5-triazin-2-yl)oxazolidin-2-one], the results for the IC50 at IDH2 mutant (R140Q), at IDH1 mutant (R132H) and on IDH1-WT were > 50 µM, 0.749 µM and > 50 µM, respectively.
For the molecule `CC(C)[C@H]1COC(=O)N1c1ncnc(N[C@@H](C)c2ccc(-c3ccc(Cl)cc3)cn2)n1` [Compound 1.10, (S)-3-(4-((S)-1-(5-(4-chlorophenyl)pyridin-2-yl)ethylamino)-1,3,5-triazin-2-yl)-4-isopropyloxazolidin-2-one], the IC50 at IDH2 mutant (R140Q) is > 50 µM; on IDH1 mutant (R132H), 2.76 µM; on IDH1-WT, > 30 µM.
In the case of `CC[C@H]1COC(=O)N1c1nc(C)nc(N[C@@H](C)c2cn(-c3ccc(C(F)(F)F)cc3)cn2)n1` [Compound 1.40, (S)-4-ethyl-3-(4-methyl-6-((S)-1-(1-(4-(trifluoromethyl)phenyl)-1H-imidazol-4-yl)ethylamino)-1,3,5-triazin-2-yl)oxazolidin-2-one], the IC50 on IDH2 mutant (R140Q) is > 50 µM; at IDH1 mutant (R132H), 0.298 µM; on IDH1-WT, > 50 µM.
Take `CC[C@H]1COC(=O)N1c1nc(C)nc(N[C@@H](C)c2ccc(Oc3ccccc3)cn2)n1` [Compound 1.75, (S)-4-ethyl-3-(4-methyl-6-((S)-1-(5-phenoxypyridin-2-yl)ethylamino)-1,3,5-triazin-2-yl)oxazolidin-2-one]: the IC50 on IDH2 mutant (R140Q) was > 50 µM; on IDH1 mutant (R132H), 0.832 µM; on IDH1-WT, > 50 µM.
On to `CC(C)[C@H]1COC(=O)N1c1ncnc(NCc2ccc(Oc3ccccc3)cc2)n1` [Compound 1.28, (S)-4-isopropyl-3-(4-(4-phenoxybenzylamino)-1,3,5-triazin-2-yl)oxazolidin-2-one], for which the IC50 at IDH2 mutant (R140Q) is > 50 µM; at IDH1 mutant (R132H) it was 4.52 µM; at IDH1-WT, > 50 µM.
Consider `CC(C)[C@H]1COC(=O)N1c1ncnc(N[C@@H](C)c2cc3cc(Cl)ccc3[nH]c2=O)n1` [Compound 1.23, (S)-3-(4-((S)-1-(6-chloro-2-oxo-1,2-dihydroquinolin-3-yl)ethylamino)-1,3,5-triazin-2-yl)-4-isopropyloxazolidin-2-one], for which the IC50 is > 50 µM at IDH2 mutant (R140Q), 0.36 µM on IDH1 mutant (R132H) and > 50 µM on IDH1-WT.
In the case of `CC[C@H]1COC(=O)N1c1nc(C)nc(N[C@@H](C)c2ccc(Oc3ccc4ccccc4c3)cc2)n1` [Compound 1.94, (S)-4-ethyl-3-(4-methyl-6-((S)-1-(4-(naphthalen-2-yloxy)phenyl)ethylamino)-1,3,5-triazin-2-yl)oxazolidin-2-one], the IC50 on IDH2 mutant (R140Q) was > 50 µM; at IDH1 mutant (R132H), 0.52 µM; on IDH1-WT, > 50 µM.
Consider `COc1nc(N[C@@H](C)c2ccc(Oc3ccccc3)cc2)nc(N2C(=O)OC[C@@H]2C(C)C)n1` [Compound 1.31, (S)-4-isopropyl-3-(4-methoxy-6-((S)-1-(4-phenoxyphenyl)ethylamino)-1,3,5-triazin-2-yl)oxazolidin-2-one], for which the IC50 is > 50 µM at IDH2 mutant (R140Q), 0.486 µM at IDH1 mutant (R132H) and > 30 µM at IDH1-WT.
On to `Cc1cc(-c2ccc([C@H](C)Nc3ncnc(N4C(=O)OC[C@@H]4C(C)C)n3)nc2)ccc1F` [Compound 1.3, (S)-3-(4-((S)-1-(5-(4-fluoro-3-methylphenyl)pyridin-2-yl)ethylamino)-1,3,5-triazin-2-yl)-4-isopropyloxazolidin-2-one], for which the results for the IC50 at IDH2 mutant (R140Q), at IDH1 mutant (R132H) and on IDH1-WT were > 30 µM, 0.83 µM and > 30 µM, respectively.
Regarding `CC(C)[C@H]1COC(=O)N1c1ncnc(N[C@@H](C)c2ccc(-c3ccc(C(F)(F)F)cc3)cn2)n1` [Compound 1.4, (S)-4-isopropyl-3-(4-((S)-1-(5-(4-(trifluoromethyl)phenyl)pyridin-2-yl)ethylamino)-1,3,5-triazin-2-yl)oxazolidin-2-one], the IC50 at IDH2 mutant (R140Q) was > 50 µM; at IDH1 mutant (R132H), 3.3 µM; at IDH1-WT it was > 30 µM.
In the case of `CC[C@H]1COC(=O)N1c1nc(C)nc(N[C@@H](C)c2ccc(Oc3ccc(F)cc3Br)cc2)n1` [Compound 1.78, (S)-3-(4-((S)-1-(4-(2-bromo-4-fluorophenoxy)phenyl)ethylamino)-6-methyl-1,3,5-triazin-2-yl)-4-ethyloxazolidin-2-one], the figures for the IC50 at IDH2 mutant (R140Q), on IDH1 mutant (R132H) and at IDH1-WT were > 50 µM, 0.44 µM and > 50 µM, respectively.
Consider `CC[C@H]1COC(=O)N1c1nc(C)nc(N[C@@H](C)c2ccc(Oc3ccc(C)cc3)cc2)n1` [Compound 1.83, (S)-4-ethyl-3-(4-methyl-6-((S)-1-(4-(p-tolyloxy)phenyl)ethylamino)-1,3,5-triazin-2-yl)oxazolidin-2-one], for which the IC50 on IDH2 mutant (R140Q) is > 50 µM; on IDH1 mutant (R132H), 0.34 µM; at IDH1-WT it was > 50 µM.
Regarding `CC[C@H]1COC(=O)N1c1nc(C)nc(N[C@@H](C)c2ccc(Oc3ccccc3)c(-c3ccccc3)c2)n1` [Compound 1.82, (S)-4-ethyl-3-(4-methyl-6-((S)-1-(6-phenoxybiphenyl-3-yl)ethylamino)-1,3,5-triazin-2-yl)oxazolidin-2-one], the 50% inhibitory concentration (IC50) on IDH2 mutant (R140Q) was > 50 µM; at IDH1 mutant (R132H), 0.414 µM; on IDH1-WT, > 50 µM.
Consider `CC[C@H]1COC(=O)N1c1ncnc(N[C@@H](C)c2ccc(Oc3ccccc3)cc2)n1` [Compound 1.29, (S)-4-ethyl-3-(4-((S)-1-(4-phenoxyphenyl)ethylamino)-1,3,5-triazin-2-yl)oxazolidin-2-one], for which the IC50 is > 50 µM on IDH2 mutant (R140Q), 0.492 µM at IDH1 mutant (R132H) and > 50 µM on IDH1-WT.

In general, IC50 refers to the midpoint of a concentration-inhibition curve.
